Holding throughout (type): physicochemical
Series [1] in a line: Physical stability of amorphous mirdametinib on storage (PXRD, PLM). Here is the method:
Solutions of mirdametinib (100 mg/mL) were prepared in methanol and THF, and each solution was divided into three equal parts to be used for 1) open at RT stability evaluation, 2) closed at RT stability evaluation, and 3) closed at −20° C. stability evaluation.
PXRD analyses of all six samples (three from both methanol and THF) following rapid evaporation indicated an amorphous state. Other analyses (e.g. PLM, TGA-IR, DSC) were performed on one sample from each solvent. Following initial analyses, one sample from each solvent was stored at RT in an open vial, at RT in a capped vial, and at −20° C. in a capped vial.

Series [2] is described as follows: Solid-state stability of crystal forms at ambient conditions. An excerpt: The following sections describe and summarize the physical properties of each of the crystal forms observed for mirdametinib.
The nature of series [3]: Desolvation/dehydration by heating in TGA pan to 100° C. The settings on record: 15° C./min from 25 to 100° C., 5 min. hold at 100° C., air-cooled to RT. Here is the method: Desolvation/dehydration studies of certain forms were conducted in a TGA pan with loose lid at a heating rate of 15° C./min from 25 to 100° C. with a 5 min. hold at 100° C. Samples were air-cooled to RT on the TGA and analyzed by PXRD if crystalline. […] PXRD indicated Form I.

A short description of series [4]: Drying of certain forms via vacuum oven at 45° C. The following applies: overnight in vacuum oven at 45° C.; PXRD at about 70% ambient lab humidity. The protocol: Drying studies for certain forms were conducted overnight in a vacuum oven at 45° C. After drying, samples were equilibrated to RT for 10 min. and analyzed by PXRD at about 70% ambient lab humidity.

Series [5] in a line: Approximate kinetic solubility (visual, solvent aliquot addition). The settings on record: thermodynamic from solid; for solubility: read-out: Solubility (mg/mL)at RT (23° C.); for solubility at 1 h: heated to 40° C. for 1 hour, read-out: Solubility (mg/mL) at 40° C. The protocol: Solubility of mirdametinib prepared by Example 3 was assessed in 30 solvents. The solubility was visually estimated at room temperature (RT; ˜23° C.) by dosing small aliquots of solvent into a fixed amount of solid (˜10 mg) until the dissolution point or a maximum volume (1.8 mL) was reached. Samples that contained undissolved solids at RT were heated to 40° C. for 1 hour and the dissolution was assessed visually. The solubility data are shown below in Table 1.

Values after ≈ are worked out from the molar mass of the structure shown. “Also recorded” adds a separate entry of the source. Where two headings read alike, the source gives them in different places.

As to `O=C(NOC[C@H](O)CO)c1ccc(F)c(F)c1Nc1ccc(I)cc1F` [A- 2], the “Results (solid form after 1 day at ambient)” value in series [1] was “Form IV”.

As for `O=C(NOC[C@H](O)CO)c1ccc(F)c(F)c1Nc1ccc(I)cc1F` [Amorphous mirdametinib, N—((R)-2,3-dihydroxypropoxy)-3,4-difluoro-2-(2-fluoro-4-iodo-phenylamino)-benzamide], the “Physically stable for” value in series [1] (open and closed vials at RT) was “at least 24 hours”.

With `O=C(NOC[C@H](O)CO)c1ccc(F)c(F)c1Nc1ccc(I)cc1F` [Form A-1], in series [1], the “Results (solid form after 1 day at ambient)” value is recorded as “Amorphous”.

In the case of `O=C(NOC[C@H](O)CO)c1ccc(F)c(F)c1Nc1ccc(I)cc1F` [Form A-1a], the “Solid state by PXRD and PLM after one day” value (“Solid state by PXRD and PLM” below) in series [1] (open vial at RT) is listed as “no crystallization”.

Regarding `O=C(NOC[C@H](O)CO)c1ccc(F)c(F)c1Nc1ccc(I)cc1F` [Form A-1b], the “Solid state by PXRD and PLM” value in series [1] (capped vial at RT) is reported as “no crystallization”.

In the case of `O=C(NOC[C@H](O)CO)c1ccc(F)c(F)c1Nc1ccc(I)cc1F` [Form A-2a], the “Solid state by PXRD and PLM” value in series [1] (open vial at RT) was “crystallization to Form IV”.

Consider `O=C(NOC[C@H](O)CO)c1ccc(F)c(F)c1Nc1ccc(I)cc1F` [Form IX, N—((R)-2,3-dihydroxypropoxy)-3,4-difluoro-2-(2-fluoro-4-iodo-phenylamino)-benzamide], for which the “Conversion at ambient conditions (in words)” value in series [2] (ambient conditions) was “significant conversion toward Form IV after 20 hours; also recorded: slowly convert to Form IV”.

Regarding `O=C(NOC[C@H](O)CO)c1ccc(F)c(F)c1Nc1ccc(I)cc1F` [Form VI, N—((R)-2,3-dihydroxypropoxy)-3,4-difluoro-2-(2-fluoro-4-iodo-phenylamino)-benzamide], in series [3], the “Result of desolvation/dehydration by heating” value is “melted and solidified in molten, amorphous state, possible decomposition”. In addition, the “Stable in solid-state at ambient conditions for” value in series [2] (solid-state, ambient conditions) is at least 2 weeks. Moreover, in series [4], the “Form after vacuum oven drying (PXRD)” value is “Partially converted to Form A”.

`O=C(NOC[C@H](O)CO)c1ccc(F)c(F)c1Nc1ccc(I)cc1F` [Form VIII, N—((R)-2,3-dihydroxypropoxy)-3,4-difluoro-2-(2-fluoro-4-iodo-phenylamino)-benzamide]: the “Stable at ambient conditions for” value in series [2] (ambient conditions) was at least 2 days.

With `O=C(NOC[C@H](O)CO)c1ccc(F)c(F)c1Nc1ccc(I)cc1F` [Form XIII, N—((R)-2,3-dihydroxypropoxy)-3,4-difluoro-2-(2-fluoro-4-iodo-phenylamino)-benzamide], the “Form after vacuum oven drying (PXRD)” value in series [4] is on record as “Form XIII/Form IV mixture converted to Form IV”.

Take `O=C(NOC[C@H](O)CO)c1ccc(F)c(F)c1Nc1ccc(I)cc1F` [Form XIV, N—((R)-2,3-dihydroxypropoxy)-3,4-difluoro-2-(2-fluoro-4-iodo-phenylamino)-benzamide]: in series [2] (ambient conditions), the “Conversion at ambient conditions (in words)” value is “convert to Form IV within four days”.

As to `O=C(NOC[C@H](O)CO)c1ccc(F)c(F)c1Nc1ccc(I)cc1F` [Form XX, N—((R)-2,3-dihydroxypropoxy)-3,4-difluoro-2-(2-fluoro-4-iodo-phenylamino)-benzamide], the “Time to convert to Form IV at ambient conditions” value in series [2] (ambient conditions) is at most 10 days.

With `O=C(NOC[C@H](O)CO)c1ccc(F)c(F)c1Nc1ccc(I)cc1F` [Form XXI, N—((R)-2,3-dihydroxypropoxy)-3,4-difluoro-2-(2-fluoro-4-iodo-phenylamino)-benzamide], the “Conversion noted under Nature of Solvate (Table 2)” value in series [2] is reported as “(converts to Form IV)”.

Take `O=C(NOC[C@H](O)CO)c1ccc(F)c(F)c1Nc1ccc(I)cc1F` [mirdametinib, N—((R)-2,3-dihydroxypropoxy)-3,4-difluoro-2-(2-fluoro-4-iodo-phenylamino)-benzamide]: the solubility was 101 to 202 mg/mL (≈ 209 to 419 mM) in series [5] (1-propanol, 23 °C, organic solvent or mixture); 97 to 194 mg/mL (≈ 201 to 402 mM) in series [5] (2-methyl-2-butanol, 23 °C, organic solvent or mixture); 98 to 196 mg/mL (≈ 203 to 406 mM) in series [5] (2-propanol (IPA), 23 °C, organic solvent or mixture); over 400 mg/mL in series [5] (23 °C, organic solvent or mixture, 2-Propanol: water (9:1 v/v)); over 408 mg/mL in series [5] (DMF (dimethylformamide), 23 °C, organic solvent or mixture); over 408 mg/mL in series [5] (Dioxane, 23 °C, organic solvent or mixture). The solubility in series [5] (Ethanol/Water (9:1 v/v), 23 °C, organic solvent or mixture) was over 424 mg/mL; in series [5] (MIBK (4-methyl-2-pentanone), 23 °C, organic solvent or mixture), 48 to 95 mg/mL (≈ 99.5 to 197 mM); in series [5] (MTBE (methyl-t-butylether), 23 °C, organic solvent or mixture) it was under 6 mg/mL; in series [5] (MeCN/Water (7:3 v/v), 23 °C, organic solvent or mixture) it was over 408 mg/mL; in series [5] (MeCN/water (8:2 v/v), 23 °C, organic solvent or mixture) it was over 412 mg/mL; in series [5] (acetic acid (HOAc), 23 °C, organic solvent or mixture), over 388 mg/mL. For the same compound, the solubility in series [5] (acetone, 23 °C, organic solvent or mixture) was over 400 mg/mL; in series [5] (acetonitrile (MeCN), 23 °C, organic solvent or mixture) it was 19 to 49 mg/mL (≈ 39.4 to 102 mM); in series [5] (chloroform, 23 °C, organic solvent or mixture), under 6 mg/mL; in series [5] (cyclohexane, 23 °C, organic solvent or mixture), under 6 mg/mL; in series [5] (dichloromethane (DCM), 23 °C, organic solvent or mixture) it was under 6 mg/mL; in series [5] (dimethyl sulfoxide (DMSO), 23 °C, organic solvent or mixture), over 388 mg/mL. The solubility is 10 to 19 mg/mL (≈ 20.7 to 39.4 mM) in series [5] (dimethylcarbonate (DMC), 23 °C, organic solvent or mixture); 208 to 416 mg/mL (≈ 431 to 863 mM) in series [5] (ethanol, 23 °C, organic solvent or mixture); 210 to 420 mg/mL (≈ 436 to 871 mM) in series [5] (ethanol/toluene (9:1), 23 °C, organic solvent or mixture); 48 to 95 mg/mL (≈ 99.5 to 197 mM) in series [5] (ethyl acetate (EtOAc), 23 °C, organic solvent or mixture); under 6 mg/mL in series [5] (isopropyl ether (IPE), 23 °C, organic solvent or mixture); over 380 mg/mL in series [5] (methanol (MeOH), 23 °C, organic solvent or mixture). Moreover, the solubility in series [5] (nitromethane, 23 °C, organic solvent or mixture) is 10 to 20 mg/mL (≈ 20.7 to 41.5 mM); in series [5] (organic solvent or mixture, Tert-butanol (t-BuOH), solubility determined at 30° C. (footnote)), 6 to 10 mg/mL (≈ 12.4 to 20.7 mM); in series [5] (tetrahydrofuran (THF), 23 °C, organic solvent or mixture), over 396 mg/mL; in series [5] (toluene, 23 °C, organic solvent or mixture), under 6 mg/mL; in series [5] (trifluoroethanol (TFE), 23 °C, organic solvent or mixture) it was 7 to 12 mg/mL (≈ 14.5 to 24.9 mM); in series [5] (water, 23 °C, water), under 6 mg/mL. For the same compound, the solubility at 1 h in series [5] (organic solvent or mixture, Chloroform) was under 6 mg/mL; in series [5] (organic solvent or mixture, Cyclohexane), under 6 mg/mL; in series [5] (organic solvent or mixture, Dichloromethane (DCM)), over 6 mg/mL; in series [5] (organic solvent or mixture, Isopropyl ether (IPE)), under 6 mg/mL; in series [5] (organic solvent or mixture, MTBE (methyl-t-butylether)), over 6 mg/mL; in series [5] (organic solvent or mixture, Toluene), under 6 mg/mL. The solubility at 1 h in series [5] (Water) was under 6 mg/mL.

Values taken from patent US12275688B2, “Crystalline solids of MEK inhibitor N-((R)-2,3-dihydroxypropoxy)-3,4-difluoro-2-(2-fluoro-4-iodo-phenylamino)-benzamide and uses thereof” (SpringWorks Therapeutics, Inc., priority 2021, dated 2025).
